From patent US20120004304A1, “BILE SALT ADJUVANT FOR ANIMALS FOR IMPROVING FAT UTILIZATION EFFICIENCY IN THE BODIES OF ANIMALS, AND ANIMAL FEED COMPRISING SAME” (KIMIN INC., priority 2009, published 2012) come the findings set out here.

A short description of data set [1]: Fat emulsifying capacity test. As to conditions: 75% water, 24.3% fat, 0.7% emulsifier (3% of fat), stirred. In kind it is physicochemical. On the procedure: In order to confirm emulsifying capacity of sodiumstearoyl-2-lactylate(hereinafter, referred to as “SSL”) of the present invention, 75% water, 24.3% fat and 0.7% SSL (3% of the amount of fat used) were added and stirred. POE (20)-glyceride, mono-glyceride and lecithin were used as comparative examples.

A short description of data set [2]: Fat digestion percentage and ME with SSL in animal feed. In kind it is in vivo. The note with it: 0.05% by weight of SSL in animal feed. An excerpt:
The use of SSL enables improvement in digestion and absorption efficiency of fats, growth promotion, improvement of qualities, and an increase in production yield. From the results of preferred experimental examples, it can be seen that, when 0.05% by weight of SSL is used, fat digestion percentage is increased to about 5 to 10% and ME is increased to about 100 kcal/kg.

A short description of data set [3]: Measurement of serum biochemical index. On the set-up: species or system ICR rats. The note with it: rat, in vivo. On the procedure: Feed for animal tests purchased from Shin Chon Feed Co., Ltd, were prepared and various additives were added thereto to obtain a molded animal feed with a predetermined size.
4-week old male ICR rats with a weight of […] were obtained from the laboratory animal center of Seoul National University, were divided into five groups (n=12) and maintained at a temperature of 23±2° C. and a variety of specific animal feeds were administered thereto. At this time, animals of each group were treated with the following chemicals: (percentage (%) means % by weight) • Control Group: animal feed+soybean oil 5% • Experimental Group: animal feed+soybean oil 5%+SSL 0.1% (HLB 20) • Comparative Example 1: animal feed+soybean oil 5%+lecithin 0.1% (HLB 4) • Comparative Example 2: animal feed+soybean oil 5%+glycerin monocaprate 0.1% (HLB 7) • Comparative Example 3: animal feed+soybean oil 5%+POE (20) sorbitan monolaurate 0.1% (HLB 16)
At 15 hours after the final weight of the test animals was measured (25 days), blood was collected from supraorbital […] blood vessel plexus of the rats using a capillary tube, serum was separated, and the following biochemical indexes were measured using a kit. […]

As to mono-glyceride, the “emulsifying capacity (appearance after stirring)” value (“emulsifying capacity” below) in data set [1] is “no emulsification”.
On to `CCCCCCCCCCCCCCCCCC(=O)OC(C)C(=O)OC(C)C(=O)[O-].[Na+]` (centres unmarked) [SSL, sodium stearoyl-2-lactylate], for which, in data set [2], the ME increase entry is recorded as “about 100 kcal/kg”. Besides, the “serum GPT and GOT versus control” value in data set [3] was “considerable improvement in serum GPT and GOT”. Moreover, the “emulsifying capacity” value in data set [1] was “homogeneous dispersion”.
With POE (20)-glyceride, in data set [1], the “emulsifying capacity” value is listed as “layer separation”.
